Source: ChEMBL document CHEMBL1909540, “Synthesis and antimycobacterial evaluation of 3a,4-dihydro-3H-indeno [1,2-c] pyrazole-2-carboxamide analogues” (Eur J Med Chem, 2011)
In brackets after ≈: the same amount, converted by molar mass.

System: Mycobacterium tuberculosis
Assay: Antitubercular activity against multidrug-resistant Mycobacterium tuberculosis by two fold serial dilution method
Type: functional

Compared with COc1cc2c(cc1OC)C1=NN(C(=O)Nc3ccc([N+](=O)[O-])cc3)C(c3ccncc3)C1C2 (stereo not given), COc1cc2c(cc1OC)C1=NN(C(=O)Nc3ccc(Cl)cc3)C(c3ccncc3)C1C2 (stereo not given) is lower in MIC: over 13.6 µM for the first, 10 µM (≈ 4.49 µg/mL) for the second.

COc1cc2c(cc1OC)C1=NN(C(=O)Nc3ccc(Cl)cc3)C(c3ccccc3Cl)C1C2 (stereo not given) and COc1cc2c(cc1OC)C1=NN(C(=O)Nc3ccc([N+](=O)[O-])cc3)C(c3ccccc3Cl)C1C2 (stereo not given) cannot be ordered by MIC: over 13.9 µM for the first, over 12.7 µM for the second.

Compared with COc1cc2c(cc1OC)C1=NN(C(=O)Nc3ccc(Cl)cc3)C(c3ccc(F)cc3)C1C2 (stereo not given), COc1ccc(C2C3Cc4cc(OC)c(OC)cc4C3=NN2C(=O)Nc2ccc(Cl)cc2)cc1 (stereo not given) is higher in MIC: 3.32 µM (≈ 1.55 µg/mL) for the first, over 10.5 µM for the second.

COc1ccc(C2C3Cc4cc(OC)c(OC)cc4C3=NN2C(=O)Nc2ccc(Cl)cc2)cc1OC (stereo not given) and COc1ccc(C2C3Cc4cc(OC)c(OC)cc4C3=NN2C(=O)Nc2ccc([N+](=O)[O-])cc2)cc1OC (stereo not given) cannot be ordered by MIC: over 9.8 µM for the first, over 12.1 µM for the second.

COc1cc2c(cc1OC)C1=NN(C(=O)Nc3ccc(Cl)cc3)C(c3ccccc3)C1C2 (stereo not given) and COc1cc2c(cc1OC)C1=NN(C(=O)Nc3ccc([N+](=O)[O-])cc3)C(c3ccccc3)C1C2 (stereo not given) are within 1.5-fold of each other in MIC: 10.5 µM (≈ 4.69 µg/mL) for the first, 13.6 µM (≈ 6.24 µg/mL) for the second.

Compared with COc1cc2c(cc1OC)C1=NN(C(=O)Nc3ccc([N+](=O)[O-])cc3)C(c3ccc(F)cc3)C1C2 (stereo not given), COc1ccc(C2C3Cc4cc(OC)c(OC)cc4C3=NN2C(=O)Nc2ccc([N+](=O)[O-])cc2)cc1 (stereo not given) is higher in MIC: 6.32 µM (≈ 3.01 µg/mL) for the first, over 12.8 µM for the second.

COc1cc2c(cc1OC)C1=NN(C(N)=O)C(c3ccncc3)C1C2 (stereo not given) and COc1cc2c(cc1OC)C1=NN(C(N)=O)C(c3ccccc3)C1C2 (stereo not given) cannot be ordered by MIC: over 11.8 µM for the first, over 11.8 µM for the second.

Going from COc1cc2c(cc1OC)C1=NN(C(N)=O)C(c3ccccc3Cl)C1C2 (stereo not given) to COc1cc2c(cc1OC)C1=NN(C(N)=O)C(c3ccc(F)cc3)C1C2 (stereo not given), the MIC falls from over 10.8 µM to 6.62 µM (≈ 2.35 µg/mL).

COc1ccc(C2C3Cc4cc(OC)c(OC)cc4C3=NN2C(N)=O)cc1OC (stereo not given) and COc1ccc(C2C3Cc4cc(OC)c(OC)cc4C3=NN2C(N)=O)cc1 (stereo not given) cannot be ordered by MIC: over 10.1 µM for the first, over 10.9 µM for the second.

Work on NNC(=O)c1ccncc1 [ISONIAZID] yielded an MIC of 45.6 µM (≈ 6.25 µg/mL).

System: not listed separately
Assay: Safety index, ratio of IC50 for african green monkey Vero cells to MIC for multidrug-resistant Mycobacterium tuberculosis
Type: toxicity, cell-based

With COc1cc2c(cc1OC)C1=NN(C(=O)Nc3ccc(Cl)cc3)C(c3ccc(F)cc3)C1C2 (stereo not given) the selectivity ratio was 40.3.
